We go through 1 compound from US20240294572A1, “Antimicrobial Peptides” (priority 2021, published 2024).

This data set deals with HaCaT cells. It counts as cell-based, human. The procedure:
Peptides were assessed for potential cytotoxicity using HaCaT cells (Addexbio Technologies, CA). Briefly, cells were seeded at a density of 1×10^4 per well in a tissue culture 96-well plate. DMEM was supplemented with 10% fetal bovine serum (FBS) and incubated at 37° C. in a 5% CO2 atmosphere for 24 hours. Culture medium was aspirated and replaced with fresh serum free media. Cells were exposed to different concentrations of peptides for 1 hour at 37° C. in a 5% CO2 atmosphere. Post-incubation, the cells were washed and incubated with 100 μL of DMEM media containing 20 μL of MTS reagent for 2 hours at 37° C. Absorbance was read at 492 nm using a ChroMate® microplate reader (Awareness Technology, FL).

Non-standard residues stand in square brackets, D forms with d. Residues, ends and D or L forms follow the SMILES beside them. *: point of attachment. Decanoyl = CCCCCCCCCC(=O)*

With `CCCCCCCCCC(=O)N[C@H](CCCCN)C(=O)N[C@H](CCCNC(=N)N)C(=O)N[C@@H](C(=O)N[C@H](Cc1c[nH]c2ccccc12)C(=O)N[C@H](CCC(N)=O)C(=O)N[C@H](CCCNC(=N)N)C(=O)N[C@@H](C(=O)N[C@H](CCCCN)C(N)=O)[C@H](C)CC)[C@H](C)CC` [Peptide C10-KR8d] (Decanoyl-[dK][dR][dI][dW][dQ][dR][dI][dK]-NH2), the “relative toxicity to HaCaT cells” value was “slightly more toxic than C10-KR8”.
